# Entries after “also recorded” stand apart in the source; their conditions may differ.
# Legend:
# mutant CLN3p = test: Protein-lipid overlay assay, mutant CLN3p (JNCL cell lysate); assay type: binding, human; details: lysate of JNCL cells, anti-CLN3 antibody
# Experimental: (§1) Protein-lipid overlay assay. Membrane arrays (SPHINGOSTRIPS (Echelon Research Laboratories, Salt Lake City, Utah), or lipids were spotted on nitrocellulose membranes and dried for at least one hour. Membranes were blocked with 3% (wt/vol) Fatty Acid Free or FFA-BSA (Sigma-Aldrich, St. Louis, Mo.) in Tris-Buffered Saline Tween-20 (TBST) [150 mM NaCl/10 mM Tris.HCl (pH 8.0), and 0.1% (vol/vol) Tween-20] for 1 h at RT. Blocked membranes were incubated for 8 h at 4° C. with 2 mg/ml of total cell lysate.
# (§2) Fibroblasts overexpressing CLN3p (AC1 cells) and JNCL fibroblasts were used for the GalCer-CLN3 binding assay. The membranes were then washed five times for 5 min each with TBST. After washing, membranes were incubated with anti-CLN3, CLN1, CLN2, CLN6 or CLN8-antibodies overnight at 1:1000 dilution, followed by additional washing and incubation with horseradish peroxidase-conjugated anti-rabbit IgG goat antibody for 1 h at RT. After a final washing, enhanced chemiluminescence was used to detect binding of NCL proteins to sphingolipids. Intensity values were computed with an ImageJ software program.
# Binding of CLN3 to GalCer and sulfatide. Membranes impregnated with sphingolipids were overlaid with protein cell lysates from CLN3-overexpressing and JNCL cells. Anti-CLN3 antibody was used to evaluate binding. […]
# [1] = test system: CLN3-deficient human NT2 neuronal precursor cells; test: Lipid raft GalCer in CLN3-deficient NT2 cells after GalCer supplementation; assay type: cell-based; details: exogenous GalCer supplementation
# CLN6 protein = biological target: T1, CLN6 protein (Homo sapiens, UniProt Q9NWW5); test: Protein-lipid overlay assay, CLN6 protein; assay type: binding; details: lysates from normal cells, custom made sphingostrips
# T1 construct: endogenous in cells
# T1 sequence (Q9NWW5 1-311): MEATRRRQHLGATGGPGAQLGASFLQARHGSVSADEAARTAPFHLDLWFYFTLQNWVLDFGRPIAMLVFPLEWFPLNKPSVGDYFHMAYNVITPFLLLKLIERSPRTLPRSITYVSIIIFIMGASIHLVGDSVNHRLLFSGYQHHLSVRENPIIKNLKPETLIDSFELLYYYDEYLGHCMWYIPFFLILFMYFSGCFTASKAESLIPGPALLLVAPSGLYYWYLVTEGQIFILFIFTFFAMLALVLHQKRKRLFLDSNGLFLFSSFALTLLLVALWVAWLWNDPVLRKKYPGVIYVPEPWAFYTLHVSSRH
# Experimental: as §1, §2
# CLN1, CLN2, CLN6, CLN8 and CLN9 proteins also bind to lipids. The protein-lipid overlay assay, using custom made sphingostrips, lysates from normal cells and anti-CLN1, anti-CLN2-, anti-CLN6, and anti-CLN8-antibodies, established that CLN6 and CLN8 proteins bind to GalCer, CLN1, CLN2 and CLN6p bind lysophosphatidic acid (LPA) and sulfatide, and CLN8p binds ceramide (FIG. 5).
# CLN3 knockdown NT2 cells = test: Cell proliferation rate in CLN3 knockdown NT2 cells, Trypan blue dye exclusion; assay type: cell-based, human; details: GalCer 50 ng/ml, 3 days post-transfection
# Experimental: Cell Culture and Cell Treatment. NT2 neuronal precursor cells (ATCC cat no. CRL 1973) were grown in DMEM supplemented with 1% sodium pyruvate, L-glutamine and antibiotics and incubated in 37 C and 5% CO2 for 3 days.
# siRNA knockdown of CLN3 in NT2 cells. HS1 siRNA ([…]) for CLN3 knockdown was designed using BLOCK-iT RNA™ Designer (Invitrogen). […] siRNA and scrambled universal negative control siRNA oligonucleotides were transfected into wild type NT2 cells using Lipofectamine RNAiMax™ according to manufacturer's protocol. In brief, […] HS1 RNAi duplex or scrambled siRNA universal negative control were diluted in 50 μl DMEM medium without serum. Lipofectamine™ RNAiMAX was mixed gently before use, then 1 μl was diluted in 50 μl DMEM medium. The diluted RNAi duplexes were combined with the diluted Lipofectamine RNAiMAX and incubated for 10 minutes at room temperature. The RNAi duplex-Lipofectamine™ RNAiMAX complexes were added to cells for a final RNA concentration of 10 nM. […]
# Determination of cell proliferation rate in CLN3 knockdown NT2 cells. 4×10^5 cells transfected with CLN3 siRNA or scrambled siRNA, and treated or not treated with 50 ng/ml GalCer, were seeded and counted with Trypan blue dye exclusion. […]
# NT2 cell proliferation and apoptosis rates. An equal number of NT2 cells was initially seeded and cell number determined at different time points with Trypan blue dye exclusion. […]
# [2] = test system: CLN3-deficient (JNCL) cells; test: Growth of CLN3-deficient (JNCL) cells treated with GalCer, Trypan blue dye exclusion; assay type: cell-based, human
# Experimental: Cell Culture. Lymphoblasts are grown at 37° C. and in 5% CO2 in RPMI 1640 medium (Sigma-Aldrich, St Louis, Mo.)/10% fetal bovine serum and 1% antibiotic/antimycotic. Immortalized lymphoblast cell lines originally obtained from JNCL and other NCL patients and normal donors, were used for all experiments. Fibroblasts from normal and mnd (CLN8-deficient) mice were also used. All JNCL lymphoblasts used are homozygous for the 1.02 kb deletion in the genomic DNA.
# Treatment of CLN3-deficient (JNCL) cells with GalCer increases growth rates. 0.1 million CLN3−/− cells were plated per well in 6 well plates. harvested and counted at 24, 48, 72 and 96 hours. Numbers of viable cells were determined with Trypan blue dye exclusion.
# [3] = investigated as a cancer therapy; cited from earlier work
# CLN8 protein = test: Protein-lipid overlay assay, CLN8 protein; assay type: binding; details: lysates from normal cells, custom made sphingostrips
# Experimental: as §1, §2
# CLN1, CLN2, CLN6, CLN8 and CLN9 proteins also bind to lipids. […]
substance,measurement,setting,value
galactosylceramide [GalCer],binding of mutant CLN3 to membrane spots impregnated with the lipid,mutant CLN3p,failed to do so
same,GalCer in lipid rafts of CLN3-deficient NT2 cells,[1],normalizes GalCer in lipid rafts
same,binding of CLN6 protein to lipid,CLN6 protein,bind
same,growth of CLN3-deficient NT2 cells,CLN3 knockdown NT2 cells,normalized growth; also recorded: corrects growth
same,growth of JNCL cells,"[2]; GalCer 50 ng/ml, counted at 24, 48, 72 and 96 hours",restored growth
same,growth of JNCL cells,[2]; GalCer 100 ng/ml (doubled concentration),no effect
same,safety in humans,[3],documented to be safe in humans
same,binding of CLN8 protein to lipid,CLN8 protein,bind
